Assay results published in publication PMC10862539, “Chelation of Mitochondrial Iron as an Antiparasitic Strategy” (ACS Infectious Diseases, 2024).
Values joined by “and” are separate entries in the source; they are usually repeats but may differ in a detail not shown here. Equal values may be shown once. Read-outs that look alike come from different tables or passages of the source.

How the values were obtained:
[1] = test system: Candida albicans; test: C. albicans hyphae formation (phase contrast microscopy); assay type: cell-based; details: 3.6 and 7.2 μM mitoDFO for 24 h
Description: The yeast form of C. albicans was seeded in the 2 mL RPMI medium on a 24 well plate with a glass bottom and treated with MitoDFO in concentrations of 0, 3.6, and 7.2 μM. The culture was incubated at 35 °C for 24 h, and microscopic images were taken using phase contrast on an inverted microscope Eclipse TI-S (Nikon).

[2] = test system: mitochondrial threonine dehydrogenase; test: Threonine dehydrogenase activity in mitochondrial fraction of treated T. brucei 427; assay type: cell-based, Trypanosoma brucei; details: 0.12 μM compound, 24 h
Description: T. brucei 427 bloodstream forms were preincubated for 24 h in appropriate conditions (0.12 μM mitoDFO, 0.12 μM DFO, and no addition) and harvested, and cytosolic and mitochondrial fractions were separated by digitonin fractionation as described previously.[46] Briefly, cells were spun down (1200 g, 15 min, 4 °C) and resuspended in SHE buffer (250 mM sucrose, 25 mM HEPES, 1 mM EDTA, pH 7.4), and protein concentration was measured using a BCA kit (Sigma-Aldrich). Subsequently, cells were transferred into HBSS (Sigma-Aldrich) and digitonin (Calbiochem) was added in the protein/digitonin ratio of 1/0.15 for 4 min and spun (21 000 g, 2 min, 4 °C). […] The activities of cytosolic pyruvate kinase and mitochondrial threonine dehydrogenase were assessed in all conditions using the spectrophotometric assay at […], as described in ref ([46]), and served both as markers of successful fraction preparation and to assess the effect of the studied compounds. Briefly, pyruvate kinase was measured in TEA buffer (0.1 M triethanolamine, 5 mM MgSO4, 50 mM KCl, pH 7.6) with added 2.8 mM phosphoenolpyruvate, 2 mM ADP, 0.3 mM NADH, and lactate dehydrogenase. Threonine dehydrogenase was measured in 0.2 M Tris–HCl buffer, pH 8.6, 0.25 KCl with 120 mM threonine, and 2.5 mM NAD^+. Fumarase was measured at […] in 2 mM Tris–HCl buffer, pH 7.5, with 20 mM malate.

[3] = test system: C. neoformans; test: Drug sensitivity assay, C. neoformans (OD600); assay type: cell-based, Cryptococcus neoformans; details: for EC50: Cryptococcus neoformans, 72 h
Description: (§1) All organisms were cultivated according to the conditions summarized in Table S2, which also includes strain specifications. Dose–response curves were obtained by their cultivation on 96 well plates in a 2-fold series dilution of the appropriate drug, in a total volume of 200 μL (with the exception of P. falciparum, where the total volume was 100 μL). Iron supplementation was achieved by mixing the compound with Fe-NTA in an equimolar ratio prior to setting up the experiment. Results were plotted and processed using Prism 8.0 (GraphPad Software). A two-tailed unpaired t-test was performed to assess the significance of the difference between mitoDFO with and without added iron. Selectivity was calculated as the ratio of the average EC50 value for human fibroblasts to the average EC50 value for the appropriate pathogen. All data were obtained from a minimum of three independent biological replicates.

[4] = test system: P. falciparum; test: Drug sensitivity assay, P. falciparum (SYBR green I); assay type: cell-based, Plasmodium falciparum; details: for selectivity (for −Fe): EC50 human fibroblasts / EC50 P. falciparum; for EC50: Plasmodium falciparum
Description: as §1

[5] = test system: murine macrophage; test: Murine macrophage axenic monoculture EC50; assay type: cell-based, mouse; details: Mus musculus, Macrophage, read-out: EC50 axenic murine macrophage
[6] = test system: T. brucei BSF cells; test: Sytox Green assay, percentage of live cells; assay type: cell-based, Trypanosoma brucei
Description: Sytox Green Assay to determine the percentage of live treated and untreated cells at selected time points. T. brucei BSF cells were seeded at a concentration of 2 × 10^5 cells/mL in 5 mL HMI-9 medium in aerobic cultivation flasks. Cells were treated with compounds at final concentration of 0,05 µM, 0,1 µM, 0,25 µM mitoDFO and 10 µM, 100 µM DFO. In addition, there was a group of untreated cells. At defined time points (24, 36, 48, and 72 h), 20 µL samples were collected from each flask. These samples were then diluted tenfold in fresh HMI-9 medium, reaching a final volume of 200 µL, with the addition of 2 µL SYTOX Green Dead Cell Stain (Invitrogen). Following a 30-minute incubation under standard growth conditions, the cells were analyzed using a Guava EasyCyte 8HT flow cyometer (Luminex flow) with detection at 504/523 nm. This entire procedure was conducted in biological triplicates.
Compound Concentration % of live cells

[7] = test system: T. brucei STIB (BSF); test: Drug sensitivity assay, T. brucei STIB bloodstream form (resazurine); assay type: cell-based, Trypanosoma brucei; details: for selectivity (for −Fe): EC50 human fibroblasts / EC50 T. brucei STIB (BSF); for EC50: Trypanosoma brucei, 72 h
Description: as §1

[8] = test system: B. divergens; test: Drug sensitivity assay, B. divergens in bovine erythrocytes (flow cytometry); assay type: cell-based, Babesia divergens; details: for EC50: Babesia divergens, Erythrocyte, 48 h; for selectivity (for −Fe): EC50 human fibroblasts / EC50 B. divergens
Description: as §1

[9] = test system: iron-containing fumarase; test: Fumarase activity in cytosolic and mitochondrial fractions of treated T. brucei 427; assay type: cell-based, Trypanosoma brucei; details: 0.12 μM compound, 24 h; for reduction of cytosolic fumarase activity: cytosolic fraction; for reduction of mitochondrial fumarase activity: mitochondrial fraction
Description: T. brucei 427 bloodstream forms were preincubated for 24 h in appropriate conditions (0.12 μM mitoDFO, 0.12 μM DFO, and no addition) and harvested, and cytosolic and mitochondrial fractions were separated by digitonin fractionation as described previously.[46] Briefly, cells were spun down (1200 g, 15 min, 4 °C) and resuspended in SHE buffer (250 mM sucrose, 25 mM HEPES, 1 mM EDTA, pH 7.4), and protein concentration was measured using a BCA kit (Sigma-Aldrich). Subsequently, cells were transferred into HBSS (Sigma-Aldrich) and digitonin (Calbiochem) was added in the protein/digitonin ratio of 1/0.15 for 4 min and spun (21 000 g, 2 min, 4 °C). The supernatant was collected and placed on ice as a cytosolic fraction. The remaining pellet was lysed using 0.1% Triton X-100 in HBSS for 5 min, resuspended, washed in HBSS twice, and used as a mitochondrial fraction. The activities of cytosolic pyruvate kinase and mitochondrial threonine dehydrogenase were assessed in all conditions using the spectrophotometric assay at […], as described in ref ([46]), and served both as markers of successful fraction preparation and to assess the effect of the studied compounds. Briefly, pyruvate kinase was measured in TEA buffer (0.1 M triethanolamine, 5 mM MgSO4, 50 mM KCl, pH 7.6) with added 2.8 mM phosphoenolpyruvate, 2 mM ADP, 0.3 mM NADH, and lactate dehydrogenase. Threonine dehydrogenase was measured in 0.2 M Tris–HCl buffer, pH 8.6, 0.25 KCl with 120 mM threonine, and 2.5 mM NAD^+. Fumarase was measured at […] in 2 mM Tris–HCl buffer, pH 7.5, with 20 mM malate.

[10] = biological target: isolated mitochondria of T. brucei 427; test: Mitochondrial membrane intactness in isolated mitochondria (threonine dehydrogenase marker); parameters: species or system Trypanosoma brucei; details: threonine dehydrogenase activity as marker, read-out: 50% membrane intactness (inner membrane permeability increased by 50%)
Description: Mitochondrial intactness was assessed by isolating the mitochondrial fraction of untreated cells, as described above, without the addition of Triton X-100 and adding different concentrations of mitoDFO. Threonine dehydrogenase activity was measured as a marker of the disintegration of mitochondrial membranes. Triton X-100 was used to disrupt membrane integrity and served as a positive control to obtain maximum activity. All experiments were performed in at least three biologically independent replicates and plotted and analyzed using Prism 8.0 (GraphPad Software).

[11] = test system: A. castellanii; test: Drug sensitivity assay, A. castellanii (flow cytometry); assay type: cell-based, Acanthamoeba castellanii; details: for selectivity (for −Fe): EC50 human fibroblasts / EC50 A. castellanii; for EC50: Acanthamoeba castellanii, 96 h
Description: as §1

[12] = test system: Babesia gibsoni; parameters: method as in PMID 18771856; details: B. gibsoni; ref [40]; cited from earlier work

With `CC(=O)N(O)CCCCCNC(=O)CCC(=O)N(O)CCCCCNC(=O)CCC(=O)N(O)CCCCCN(CCCCCCCCCC[P+](c1ccccc1)(c1ccccc1)c1ccccc1)CCCCCCCCCC[P+](c1ccccc1)(c1ccccc1)c1ccccc1` [mitoDFO] the “hyphal growth of Candida albicans culture” value [1] was “absence of hyphal growth”, the threonine dehydrogenase activity [2] was “significantly reduced” and the “DFO/mitoDFO ratio (−Fe)” value ([3]; C. neoformans) was >50. For the same compound, the “mitoDFO EC50 ratio + Fe/–Fe” value ([3]; C. neoformans) was 2.1, the EC50 ([3]; read-out: EC50 –Fe) was 2 ± 0.5 µM and the “selectivity (for −Fe)” value ([3]; EC50 human fibroblasts / EC50 C. neoformans) was 4. For the same compound, the “selectivity (for −Fe)” value [4] was 27, the “DFO/mitoDFO ratio (−Fe)” value ([4]; P. falciparum) was 38.0 and the “mitoDFO EC50 ratio + Fe/–Fe” value ([4]; P. falciparum) was 1.4. For the same compound, the EC50 [4] was 0.334 ± 0.01 µM, the EC50 ([4]; 48 h, read-out: EC50 –Fe) was 0.33 ± 0.01 µM and the EC50 [5] was 6.34 ± 4.45 µM. The “% of live cells” value ([6]; 0,1 µM mitoDFO, 24h) was 99,1%, the “% of live cells” value ([6]; 0,1 µM mitoDFO, 36h) was 97,9% and the “% of live cells” value ([6]; 0,1 µM mitoDFO, 48h) was 66,2%. For the same compound, the “% of live cells” value ([6]; 0,1 µM mitoDFO, 72h) was 53,8%, the “% of live cells” value ([6]; 0,05 µM mitoDFO, 24h) was 98,6% and the “% of live cells” value ([6]; 0,05 µM mitoDFO, 36h) was 96,1%. The “% of live cells” value ([6]; 0,05 µM mitoDFO, 48h) was 62,1%, the “% of live cells” value ([6]; 0,05 µM mitoDFO, 72h) was 52,8% and the “% of live cells” value ([6]; 0,25 µM mitoDFO, 24h) was 94,4%. The “% of live cells” value ([6]; 0,25 µM mitoDFO, 36h) was 82,5%, the “% of live cells” value ([6]; 0,25 µM mitoDFO, 48h) was 70,2% and the “% of live cells” value ([6]; 0,25 µM mitoDFO, 72h) was 64,3%. The cells alive ([6]; 24 h incubation with up to 0.25 μM) was “more than 90%”, the living cells ([6]; twice the EC50 concentration, 36 h) was “more than 95%” and the “selectivity (for −Fe)” value [7] was 28. The “DFO/mitoDFO ratio (−Fe)” value ([7]; T. brucei STIB (BSF)) was 8.1, the EC50 ([7]; read-out: EC50 –Fe) was 0.32 ± 0.067 µM and the “DFO/mitoDFO ratio (−Fe)” value ([8]; B. divergens) was 4.7. The “mitoDFO EC50 ratio + Fe/–Fe” value ([8]; B. divergens) was 2.5, the EC50 ([8]; read-out: EC50 –Fe) was 2.3 ± 0.8 µM and the “selectivity (for −Fe)” value [8] was 4. The “reduction of cytosolic fumarase activity” value [9] was “approximately 3 fold”, the “reduction of mitochondrial fumarase activity” value [9] was “approximately 3 fold” and the EC50 [10] was 63.2 µM and 63 µM. For the same compound, the “DFO/mitoDFO ratio (−Fe)” value ([11]; A. castellanii) was 11.1, the “mitoDFO EC50 ratio + Fe/–Fe” value ([11]; A. castellanii) was 1.3 and the “selectivity (for −Fe)” value [11] was 11.

With `CC(=O)N(O)CCCCCNC(=O)CCC(=O)N(O)CCCCCNC(=O)CCC(=O)N(O)CCCCCN` [DFO, Deferoxamine, reference compound] the threonine dehydrogenase activity [2] was “not”, the EC50 ([3]; iron-free compound, C. neoformans, read-out: EC50 –Fe) was > 100 µM and the EC50 ([3]; pre-treated with equimolar iron, C. neoformans, read-out: EC50 +Fe) was > 100 µM. The “selectivity (for −Fe)” value [4] was >8, the EC50 ([4]; iron-free compound, P. falciparum, 48 h, read-out: EC50 –Fe) was 12.7 ± 0.6 µM and the EC50 ([4]; pre-treated with equimolar iron, P. falciparum, 48 h, read-out: EC50 +Fe) was > 50 µM. The EC50 ([5]; axenic monoculture) was > 25 µM, the “% of live cells” value ([6]; 10 µM DFO, 24h) was 99,1% and the “% of live cells” value ([6]; 10 µM DFO, 36h) was 97,5%. The “% of live cells” value ([6]; 10 µM DFO, 48h) was 74,3%, the “% of live cells” value ([6]; 10 µM DFO, 72h) was 58,6% and the “% of live cells” value ([6]; 100 µM DFO, 24h) was 95,5%. For the same compound, the “% of live cells” value ([6]; 100 µM DFO, 36h) was 78,2%, the “% of live cells” value ([6]; 100 µM DFO, 48h) was 62,1% and the “% of live cells” value ([6]; 100 µM DFO, 72h) was 54,8%. For the same compound, the “selectivity (for −Fe)” value [7] was >38, the EC50 ([7]; iron-free compound, T. brucei STIB (BSF), read-out: EC50 –Fe) was 2.61 ± 0.753 µM and the EC50 ([7]; pre-treated with equimolar iron, T. brucei STIB (BSF), read-out: EC50 +Fe) was 14.5 ± 1.18 µM. For the same compound, the EC50 ([8]; iron-free compound, B. divergens, read-out: EC50 –Fe) was 10.8 ± 1.3 µM, the EC50 ([8]; pre-treated with equimolar iron, B. divergens, read-out: EC50 +Fe) was > 50 µM and the “selectivity (for −Fe)” value [8] was >9. For the same compound, the “reduction of cytosolic fumarase activity” value [9] was “no significant effect”, the “reduction of mitochondrial fumarase activity” value [9] was “no significant effect” and the EC50 [12] was 6.45 ± 3.43 µM. For the same compound, the EC50 ([11]; iron-free compound, A. castellanii, read-out: EC50 –Fe) was 8.9 ± 0.6 µM, the EC50 ([11]; pre-treated with equimolar iron, A. castellanii, read-out: EC50 +Fe) was > 50 µM and the “selectivity (for −Fe)” value [11] was >11.
